Columns and labels:
[1] = target: Tyrosine-protein kinase Fer (Homo sapiens) (UniProt P16591); experiment: Inhibition of human FER catalytic domain expressed in baculovirus assessed as substrate phosphorylation using fluorescence-labelled peptides as substrate at 0.06 uM after 90 mins by microfluidic peptide phosphorylation assay
[2] = target: Ribosomal protein S6 kinase alpha-5 (Homo sapiens) (UniProt O75582); experiment: Inhibition of human full length MSK1 expressed in baculovirus assessed as substrate phosphorylation using fluorescence-labelled peptides as substrate at 0.2 uM after 90 mins by microfluidic peptide phosphorylation assay
[3] = target: T1, Calcium/calmodulin-dependent protein kinase type IV (Homo sapiens) (UniProt Q16566); experiment: Inhibition of human full length CAMK4 expressed in baculovirus assessed as substrate phosphorylation using fluorescence-labelled peptides as substrate at 0.2 uM after 90 mins by microfluidic peptide phosphorylation assay
T1 sequence (whole entry): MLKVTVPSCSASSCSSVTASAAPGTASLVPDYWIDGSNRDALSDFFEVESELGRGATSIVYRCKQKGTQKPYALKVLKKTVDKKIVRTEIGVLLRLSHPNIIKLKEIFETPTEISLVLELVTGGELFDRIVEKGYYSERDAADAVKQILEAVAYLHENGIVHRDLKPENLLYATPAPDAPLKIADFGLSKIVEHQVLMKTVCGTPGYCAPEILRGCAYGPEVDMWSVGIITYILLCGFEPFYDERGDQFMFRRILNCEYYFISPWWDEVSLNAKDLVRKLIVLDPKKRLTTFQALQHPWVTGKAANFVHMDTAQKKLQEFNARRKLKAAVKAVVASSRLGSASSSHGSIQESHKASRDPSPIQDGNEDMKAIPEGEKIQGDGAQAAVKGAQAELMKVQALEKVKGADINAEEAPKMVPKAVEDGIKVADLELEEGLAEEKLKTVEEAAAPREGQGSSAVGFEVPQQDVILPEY

[4] = target: Mitogen-activated protein kinase 1 (Homo sapiens) (UniProt P28482); experiment: Inhibition of human full length ERK2 expressed in Escherichia coli cell assessed as substrate phosphorylation using fluorescence-labelled peptides as substrate at 2 uM after 90 mins by microfluidic peptide phosphorylation assay
[5] = target: T2, Serine/threonine-protein kinase Sgk1 (Homo sapiens) (UniProt O00141); experiment: Inhibition of human truncated SGK1 expressed in baculovirus assessed as substrate phosphorylation using fluorescence-labelled peptides as substrate at 9 uM after 90 mins by microfluidic peptide phosphorylation assay
T2 sequence (whole entry): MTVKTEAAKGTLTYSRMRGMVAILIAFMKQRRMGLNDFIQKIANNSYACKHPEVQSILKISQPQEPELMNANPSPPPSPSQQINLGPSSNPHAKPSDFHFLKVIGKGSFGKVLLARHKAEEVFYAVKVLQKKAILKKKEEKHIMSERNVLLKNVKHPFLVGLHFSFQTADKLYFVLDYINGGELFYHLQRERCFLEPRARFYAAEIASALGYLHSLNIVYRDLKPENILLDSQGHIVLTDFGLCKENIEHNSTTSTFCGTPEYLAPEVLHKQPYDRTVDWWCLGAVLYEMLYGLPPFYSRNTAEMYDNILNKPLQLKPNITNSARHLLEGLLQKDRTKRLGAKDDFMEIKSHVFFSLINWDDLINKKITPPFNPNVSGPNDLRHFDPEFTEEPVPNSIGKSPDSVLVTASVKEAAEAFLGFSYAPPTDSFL

[6] = target: Protein kinase C beta type (Homo sapiens) (UniProt P05771); settings: 0.1 uM
Description: Inhibition of human full length PKC beta2 expressed in baculovirus assessed as substrate phosphorylation using fluorescence-labelled peptides as substrate at 0.1 uM after 90 mins by microfluidic peptide phosphorylation assay

[7] = target: T3, Aurora kinase C (Homo sapiens) (UniProt Q9UQB9); experiment: Inhibition of human full length AurC expressed in baculovirus assessed as substrate phosphorylation using fluorescence-labelled peptides as substrate at 1000 uM after 90 mins by microfluidic peptide phosphorylation assay
T3 sequence (whole entry): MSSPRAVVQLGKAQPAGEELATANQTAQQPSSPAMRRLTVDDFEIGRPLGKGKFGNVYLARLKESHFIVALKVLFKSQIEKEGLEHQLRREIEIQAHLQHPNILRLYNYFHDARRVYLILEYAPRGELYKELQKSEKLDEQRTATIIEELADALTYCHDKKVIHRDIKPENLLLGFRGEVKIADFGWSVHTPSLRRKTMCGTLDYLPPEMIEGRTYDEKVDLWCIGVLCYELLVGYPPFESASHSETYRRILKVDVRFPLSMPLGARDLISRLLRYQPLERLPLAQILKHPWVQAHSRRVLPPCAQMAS

[8] = target: T4, Serine/threonine-protein kinase D3 (Homo sapiens) (UniProt O94806); experiment: Inhibition of human full length PKD3 expressed in baculovirus assessed as substrate phosphorylation using fluorescence-labelled peptides as substrate at 1000 uM after 90 mins by microfluidic peptide phosphorylation assay
T4 sequence (whole entry): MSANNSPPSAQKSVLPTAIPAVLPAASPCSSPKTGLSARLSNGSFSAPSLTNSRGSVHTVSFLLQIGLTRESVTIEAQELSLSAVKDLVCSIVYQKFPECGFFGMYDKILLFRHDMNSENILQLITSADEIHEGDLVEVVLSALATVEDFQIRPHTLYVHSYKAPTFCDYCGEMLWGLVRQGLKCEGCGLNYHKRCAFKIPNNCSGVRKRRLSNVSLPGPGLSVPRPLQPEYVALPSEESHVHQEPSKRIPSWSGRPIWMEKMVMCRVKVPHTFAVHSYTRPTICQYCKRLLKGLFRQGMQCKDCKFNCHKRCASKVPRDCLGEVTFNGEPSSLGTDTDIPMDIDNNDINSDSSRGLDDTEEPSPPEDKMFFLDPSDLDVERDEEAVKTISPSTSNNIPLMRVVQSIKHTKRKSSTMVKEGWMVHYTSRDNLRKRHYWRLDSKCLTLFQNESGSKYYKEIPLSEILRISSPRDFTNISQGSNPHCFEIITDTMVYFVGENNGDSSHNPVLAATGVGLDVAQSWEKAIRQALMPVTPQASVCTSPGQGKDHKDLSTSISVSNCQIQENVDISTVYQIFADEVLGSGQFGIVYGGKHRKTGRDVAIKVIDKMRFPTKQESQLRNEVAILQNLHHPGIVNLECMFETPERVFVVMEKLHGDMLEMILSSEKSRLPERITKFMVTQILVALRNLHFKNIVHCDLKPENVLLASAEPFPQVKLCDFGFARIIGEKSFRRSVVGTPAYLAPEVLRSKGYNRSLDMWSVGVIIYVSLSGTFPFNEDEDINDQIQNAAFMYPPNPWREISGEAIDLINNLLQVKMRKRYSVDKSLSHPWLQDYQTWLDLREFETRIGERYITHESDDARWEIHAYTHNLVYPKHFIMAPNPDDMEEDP

[9] = test system: Fibroblast growth factor receptor 2 (Homo sapiens), P21802 [N549H]; experiment: Inhibition of human FGFR2 N549H mutant catalytic domain expressed in baculovirus assessed as substrate phosphorylation using fluorescence-labelled peptides as substrate at 70 uM after 90 mins by microfluidic peptide phosphorylation assay
[10] = target: Serine/threonine-protein kinase Chk2 (Homo sapiens) (UniProt O96017); experiment: Inhibition of human full length CHK2 expressed in baculovirus assessed as substrate phosphorylation using fluorescence-labelled peptides as substrate at 420 uM after 90 mins by microfluidic peptide phosphorylation assay
Serine/threonine-protein kinase Chk2 (Homo sapiens), sequence (O96017 whole entry): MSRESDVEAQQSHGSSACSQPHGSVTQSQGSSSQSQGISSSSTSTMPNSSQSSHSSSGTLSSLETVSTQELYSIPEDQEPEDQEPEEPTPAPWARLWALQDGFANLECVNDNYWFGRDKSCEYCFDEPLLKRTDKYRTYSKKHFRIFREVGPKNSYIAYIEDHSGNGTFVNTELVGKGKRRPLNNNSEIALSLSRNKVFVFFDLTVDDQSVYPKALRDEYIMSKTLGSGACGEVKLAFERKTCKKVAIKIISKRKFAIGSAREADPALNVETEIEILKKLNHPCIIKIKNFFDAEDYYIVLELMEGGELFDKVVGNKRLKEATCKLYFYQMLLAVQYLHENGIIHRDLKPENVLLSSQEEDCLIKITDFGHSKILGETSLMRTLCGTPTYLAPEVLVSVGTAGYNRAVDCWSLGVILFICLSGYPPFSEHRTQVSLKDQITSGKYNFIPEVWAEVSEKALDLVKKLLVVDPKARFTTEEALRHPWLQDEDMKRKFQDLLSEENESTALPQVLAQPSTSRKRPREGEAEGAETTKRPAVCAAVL

Protein kinase C beta type (Homo sapiens), sequence (P05771 2-671 limits assumed): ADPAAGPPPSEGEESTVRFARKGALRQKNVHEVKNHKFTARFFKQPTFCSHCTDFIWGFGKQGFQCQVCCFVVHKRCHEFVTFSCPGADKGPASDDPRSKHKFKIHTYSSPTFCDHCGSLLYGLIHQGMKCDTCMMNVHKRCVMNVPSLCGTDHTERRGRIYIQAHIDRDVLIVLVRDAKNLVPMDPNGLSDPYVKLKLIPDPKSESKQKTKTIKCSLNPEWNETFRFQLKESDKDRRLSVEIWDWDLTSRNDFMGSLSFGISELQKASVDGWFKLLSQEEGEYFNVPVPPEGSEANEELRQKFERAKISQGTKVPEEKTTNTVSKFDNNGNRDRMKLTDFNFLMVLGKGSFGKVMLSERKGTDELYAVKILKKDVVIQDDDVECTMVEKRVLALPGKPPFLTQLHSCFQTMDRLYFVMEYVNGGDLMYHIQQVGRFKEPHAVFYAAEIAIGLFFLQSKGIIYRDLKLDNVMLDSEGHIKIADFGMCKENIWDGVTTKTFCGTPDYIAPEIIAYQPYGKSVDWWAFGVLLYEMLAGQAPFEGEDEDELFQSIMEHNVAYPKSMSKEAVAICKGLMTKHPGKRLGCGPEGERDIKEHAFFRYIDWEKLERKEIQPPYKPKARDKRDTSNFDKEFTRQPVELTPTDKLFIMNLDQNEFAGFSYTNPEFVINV
Fibroblast growth factor receptor 2 (Homo sapiens), P21802 [N549H], sequence (P21802 whole entry N549H, the tested form may be a part): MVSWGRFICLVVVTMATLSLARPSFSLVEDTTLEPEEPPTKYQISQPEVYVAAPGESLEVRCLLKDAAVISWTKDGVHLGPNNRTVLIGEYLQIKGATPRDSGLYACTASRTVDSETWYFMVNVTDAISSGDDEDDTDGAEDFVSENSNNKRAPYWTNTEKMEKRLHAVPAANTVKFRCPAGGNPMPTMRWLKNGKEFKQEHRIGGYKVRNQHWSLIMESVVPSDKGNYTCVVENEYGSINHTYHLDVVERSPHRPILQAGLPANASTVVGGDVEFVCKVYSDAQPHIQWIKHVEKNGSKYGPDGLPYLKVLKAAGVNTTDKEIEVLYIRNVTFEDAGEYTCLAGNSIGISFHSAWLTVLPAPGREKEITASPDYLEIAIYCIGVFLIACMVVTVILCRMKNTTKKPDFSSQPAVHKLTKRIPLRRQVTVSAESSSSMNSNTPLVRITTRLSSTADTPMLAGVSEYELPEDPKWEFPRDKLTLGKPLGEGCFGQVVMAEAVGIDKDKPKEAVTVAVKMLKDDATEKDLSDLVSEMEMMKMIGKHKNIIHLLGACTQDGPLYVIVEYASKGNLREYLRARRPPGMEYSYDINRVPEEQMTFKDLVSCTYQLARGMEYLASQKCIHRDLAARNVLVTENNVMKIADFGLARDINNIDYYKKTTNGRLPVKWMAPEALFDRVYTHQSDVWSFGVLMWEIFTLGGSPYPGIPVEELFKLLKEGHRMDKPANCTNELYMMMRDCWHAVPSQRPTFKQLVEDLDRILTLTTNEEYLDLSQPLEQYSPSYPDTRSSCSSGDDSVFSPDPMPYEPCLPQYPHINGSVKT
Tyrosine-protein kinase Fer (Homo sapiens), sequence (P16591 whole entry, looked up, the tested form may be a part): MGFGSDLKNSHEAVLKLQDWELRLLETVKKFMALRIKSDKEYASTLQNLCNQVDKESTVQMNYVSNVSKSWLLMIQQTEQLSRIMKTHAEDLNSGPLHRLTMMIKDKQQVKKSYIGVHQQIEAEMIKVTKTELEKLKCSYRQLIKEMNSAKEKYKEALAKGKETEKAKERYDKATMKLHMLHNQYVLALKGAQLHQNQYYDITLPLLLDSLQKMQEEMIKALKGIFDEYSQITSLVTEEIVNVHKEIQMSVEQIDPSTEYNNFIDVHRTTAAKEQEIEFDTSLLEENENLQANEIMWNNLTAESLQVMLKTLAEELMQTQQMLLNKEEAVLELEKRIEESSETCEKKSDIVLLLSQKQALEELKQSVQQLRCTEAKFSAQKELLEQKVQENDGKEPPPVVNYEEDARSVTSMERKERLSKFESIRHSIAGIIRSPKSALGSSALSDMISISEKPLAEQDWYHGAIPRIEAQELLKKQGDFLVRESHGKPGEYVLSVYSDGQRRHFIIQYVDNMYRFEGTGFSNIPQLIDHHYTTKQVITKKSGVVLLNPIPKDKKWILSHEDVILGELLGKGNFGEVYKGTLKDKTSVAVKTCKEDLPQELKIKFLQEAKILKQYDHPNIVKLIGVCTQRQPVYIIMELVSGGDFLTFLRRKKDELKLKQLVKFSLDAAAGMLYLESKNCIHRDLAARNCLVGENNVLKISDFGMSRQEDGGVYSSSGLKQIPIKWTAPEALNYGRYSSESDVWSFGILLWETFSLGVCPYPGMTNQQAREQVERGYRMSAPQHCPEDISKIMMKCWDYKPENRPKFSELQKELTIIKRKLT
Mitogen-activated protein kinase 1 (Homo sapiens), sequence (P28482 whole entry, the tested form may be a part): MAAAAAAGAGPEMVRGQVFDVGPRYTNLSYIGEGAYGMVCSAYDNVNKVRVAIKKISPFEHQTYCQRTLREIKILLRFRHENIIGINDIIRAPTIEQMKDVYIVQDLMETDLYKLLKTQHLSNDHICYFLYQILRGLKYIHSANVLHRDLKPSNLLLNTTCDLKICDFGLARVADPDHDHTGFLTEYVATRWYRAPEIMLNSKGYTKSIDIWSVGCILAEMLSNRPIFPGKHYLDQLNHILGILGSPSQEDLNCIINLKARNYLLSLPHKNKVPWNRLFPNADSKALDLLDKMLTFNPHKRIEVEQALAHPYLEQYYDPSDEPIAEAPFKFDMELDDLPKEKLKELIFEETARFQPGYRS
Ribosomal protein S6 kinase alpha-5 (Homo sapiens), sequence (O75582 whole entry, looked up): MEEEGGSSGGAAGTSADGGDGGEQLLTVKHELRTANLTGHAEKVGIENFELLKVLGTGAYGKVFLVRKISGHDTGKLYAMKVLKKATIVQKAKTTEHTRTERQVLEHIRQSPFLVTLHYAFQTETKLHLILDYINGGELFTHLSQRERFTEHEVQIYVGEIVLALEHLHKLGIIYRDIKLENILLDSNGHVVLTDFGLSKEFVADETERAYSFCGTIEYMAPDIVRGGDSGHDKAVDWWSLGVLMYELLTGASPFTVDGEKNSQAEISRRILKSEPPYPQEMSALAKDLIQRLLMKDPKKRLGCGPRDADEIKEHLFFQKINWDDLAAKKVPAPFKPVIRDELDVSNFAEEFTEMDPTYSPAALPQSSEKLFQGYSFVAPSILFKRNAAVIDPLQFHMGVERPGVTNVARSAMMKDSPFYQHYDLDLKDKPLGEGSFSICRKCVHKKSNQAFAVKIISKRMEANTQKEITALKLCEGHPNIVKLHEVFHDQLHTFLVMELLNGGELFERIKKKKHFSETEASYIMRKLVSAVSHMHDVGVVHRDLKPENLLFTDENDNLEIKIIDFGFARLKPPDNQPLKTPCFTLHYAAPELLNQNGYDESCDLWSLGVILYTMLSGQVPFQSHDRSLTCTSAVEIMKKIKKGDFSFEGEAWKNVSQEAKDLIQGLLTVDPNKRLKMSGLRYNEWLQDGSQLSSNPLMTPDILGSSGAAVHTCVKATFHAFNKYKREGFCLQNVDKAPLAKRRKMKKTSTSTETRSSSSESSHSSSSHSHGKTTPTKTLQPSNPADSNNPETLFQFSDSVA

NC1(Cc2ccc(Cl)cc2)CCN(c2ncnc3[nH]ccc23)CC1
inhibition [1]: 4%

Clc1ccc(C2(c3ccc(-c4ncnc5[nH]cnc45)cc3)CCNCC2)cc1
inhibition [2]: 90%
inhibition [3]: 74%

NC1CCN(c2ncnc3[nH]ccc23)CC1
inhibition [4]: 2.5%

NCC1CN(c2ncnc3[nH]c4cnccc4c23)CCO1 (stereo not given)
inhibition [5]: 51%

C[C@H](CN(C)C)Oc1nc(Nc2cc3cccc(Cl)c3cn2)cnc1C#N
inhibition [6]: 0%

c1cnc2[nH]ccc2c1
inhibition [7]: 96%
inhibition [8]: 62.5%

CNCc1ccc(-c2ncnc3[nH]cnc23)cc1
inhibition [9]: 35.5%

c1nc(N2CCOCC2)c2nc[nH]c2n1
inhibition [10]: 85%

Source: ChEMBL document CHEMBL3132769, “Fragment growing to retain or alter the selectivity of anchored kinase hinge-binding fragments” (Medchemcomm, 2014)
